The record followed here is EP0844825B1, “INSECTICIDAL N-(SUBSTITUTED ARYLMETHYL)-4- BIS(SUBSTITUTED PHENYL OR PYRIDYL)METHYL]PIPERIDINES” (FMC CORPORATION, priority 1995, dated 1996).

The test system of this assay is tobacco budworm (Heliothis virescens [Fabricius]). Kind of assay: Diet test: test chemical incorporated into artificial diet of tobacco budworm larvae, 5-day exposure. It is filed as in vivo. The conditions noted are these: for IC50 / LC50 / mortality at 100 µM: Heliothis virescens, 120 h; for IC50: negative log of the concentration that provides 50% growth inhibition, by linear regression, read-out: pl50 (converted); for IC50 / LC50 / Percent Growth Inhibition: 5 days, * = average of more than one test; for LC50: negative log of the concentration that provides 50% mortality, read-out: pLC50 (converted); for mortality at 100 µM: feed or water, read-out: Percent Mortality; for Percent Growth Inhibition: rate of application 4 (negative log of molar concentration in the diet), second instar larvae, 25°C. Here is the method:
Candidate insecticides were incorporated into an artificial diet for evaluation of insecticidal activity against the tobacco budworm (Heliothis virescens [Fabricius]) in the following manner. Stock solutions of test chemical in dimethyl sulfoxide, ranging from […], were prepared for each rate of application. One hundred microliters of each of the stock solutions was manually stirred into 50 mL of a molten (65-70°C) wheat germ-based artificial diet. The 50 mL of molten diet containing the test chemical was poured evenly into twenty wells in the outer two rows on each side of a twenty-five well, five row plastic tray. (Each well in the tray was about 1 cm in depth, with an opening of 3 cm by 4 cm at the lip.) Molten diet containing only dimethyl sulfoxide at the levels used in the test chemical-treated diet was poured into the five wells in the third (center) row of the tray. Each tray therefore contained one test chemical at a single rate of application, together with an untreated control. The rates of application, expressed as the negative log of the molar concentration, and the corresponding concentrations of the stock solution prepared for each rate are shown below:
Single second instar tobacco budworm larvae, selected at a stage of growth at which they uniformly weigh about 5 mg each, were placed in each well. Upon completion of infestation, a sheet of clear plastic was heat-sealed over the top of the tray by use of a common household flat.iron. The trays were held at 25°C at 60% relative humidity for five days in a growth chamber. Lighting was set at 14 hours of light and 10 hours of darkness. After the 5-day exposure period, mortality counts were taken, and the surviving insects were weighed. From the weights of the surviving insects that fed on the treated diet as compared to those insects that fed on the untreated diet, the percent growth inhibition caused by each test chemical was determined. […] Also, where possible, the negative log of the concentration of the test chemical that provided 50% mortality (pLC50) was determined.

As to `OC(c1ccc(C(F)(F)F)cc1)(c1ccc(C(F)(F)F)cc1)C1CCN(Cc2ccc(-c3ccc(Cl)cn3)cc2)CC1` [Compound 47], the IC50 was 31.6 µM, the LC50 is 31.6 µM, the mortality at 100 µM came to 100% and the “Percent Growth Inhibition” value was 100%. For the compound `[O-][N+]1(Cc2ccc(-c3ccc(Cl)cn3)cc2)CCC(C(O)(c2ccc(C(F)(F)F)cc2)c2ccc(C(F)(F)F)cc2)CC1` (stereo not shown) [Compound 48], the mortality at 100 µM turned out to be 85%.

For the compound `Cc1cccc(-c2ccc(CN3CCC(C(O)(c4ccc(C(F)(F)F)cc4)c4ccc(C(F)(F)F)cc4)CC3)cc2)n1` [Compound 49], the mortality at 100 µM is 100%. Still for that read-out and setting: the figure for `Cc1cccc(-c2ccc(C[N+]3([O-])CCC(C(O)(c4ccc(C(F)(F)F)cc4)c4ccc(C(F)(F)F)cc4)CC3)cc2)n1` (stereo not shown) [Compound 50] is 100%; for `Cc1ccc(-c2ccc(CN3CCC(C(O)(c4ccc(C(F)(F)F)cc4)c4ccc(C(F)(F)F)cc4)CC3)cc2)nc1` [Compound 51] it is 100%. Still for that read-out and setting: under `OC(c1ccc(C(F)(F)F)cc1)(c1ccc(C(F)(F)F)cc1)C1CCN(Cc2ccc(Oc3ccccn3)cc2)CC1` [Compound 53] stands 100%; under `[O-][N+]1(Cc2ccc(Oc3ccccn3)cc2)CCC(C(O)(c2ccc(C(F)(F)F)cc2)c2ccc(C(F)(F)F)cc2)CC1` (stereo not shown) [Compound 54], 100%. `[O-][n+]1ccccc1Oc1ccc(CN2CCC(C(O)(c3ccc(C(F)(F)F)cc3)c3ccc(C(F)(F)F)cc3)CC2)cc1` [Compound 55]: the IC50 is 3.16 µM, the LC50 was 79.4 µM, the mortality at 100 µM was found to be 55% and the “Percent Growth Inhibition” value was determined as 100%.

As to `[O-][n+]1ccccc1Oc1ccc(C[N+]2([O-])CCC(C(O)(c3ccc(C(F)(F)F)cc3)c3ccc(C(F)(F)F)cc3)CC2)cc1` (stereo not shown) [Compound 56], the mortality at 100 µM turned out to be 100%. In the case of `Cc1cccnc1Oc1ccc(CN2CCC(C(O)(c3ccc(C(F)(F)F)cc3)c3ccc(C(F)(F)F)cc3)CC2)cc1` [Compound 57], the IC50 is 0.794 µM, the LC50 is 7.94 µM, the mortality at 100 µM turned out to be 100% and the “Percent Growth Inhibition” value turned out to be 100%. For `Cc1cccnc1Oc1ccc(C[N+]2([O-])CCC(C(O)(c3ccc(C(F)(F)F)cc3)c3ccc(C(F)(F)F)cc3)CC2)cc1` (stereo not shown) [Compound 58], the mortality at 100 µM was 100%.

In the case of `Cc1ccc[n+]([O-])c1Oc1ccc(CN2CCC(C(O)(c3ccc(C(F)(F)F)cc3)c3ccc(C(F)(F)F)cc3)CC2)cc1` [Compound 59], the mortality at 100 µM is 100%. On the same count and under the same terms, under `OC(c1ccc(C(F)(F)F)cc1)(c1ccc(C(F)(F)F)cc1)C1CCN(Cc2ccc(Oc3ncccc3C(F)(F)F)cc2)CC1` [Compound 60] stands 100%; under `[O-][N+]1(Cc2ccc(Oc3ncccc3C(F)(F)F)cc2)CCC(C(O)(c2ccc(C(F)(F)F)cc2)c2ccc(C(F)(F)F)cc2)CC1` (stereo not shown) [Compound 61], 100%. On to `Cc1ccnc(Oc2ccc(CN3CCC(C(O)(c4ccc(C(F)(F)F)cc4)c4ccc(C(F)(F)F)cc4)CC3)cc2)c1` [Compound 62], for which the IC50 is 0.631 µM, the LC50 was 6.31 µM, the mortality at 100 µM came out at 100% and the “Percent Growth Inhibition” value turned out to be 100%. Take `Cc1ccnc(Oc2ccc(C[N+]3([O-])CCC(C(O)(c4ccc(C(F)(F)F)cc4)c4ccc(C(F)(F)F)cc4)CC3)cc2)c1` (stereo not shown) [Compound 63]: the mortality at 100 µM came to 100%.

Take `OC(c1ccc(C(F)(F)F)cc1)(c1ccc(C(F)(F)F)cc1)C1CCN(Cc2ccc(Oc3cc(C(F)(F)F)ccn3)cc2)CC1` [Compound 64]: the mortality at 100 µM amounted to 100%. On the same count and under the same terms, under `[O-][n+]1ccc(C(F)(F)F)cc1Oc1ccc(CN2CCC(C(O)(c3ccc(C(F)(F)F)cc3)c3ccc(C(F)(F)F)cc3)CC2)cc1` [Compound 65] stands 25%; under `OC(c1ccc(C(F)(F)F)cc1)(c1ccc(C(F)(F)F)cc1)C1CCN(Cc2ccc(Oc3ccc(Cl)cn3)cc2)CC1` [Compound 66], 100%.

What is called mortality is the share of the test organisms that died.
